Paper PMC5429603, “Discovery and characterization of verinurad, a potent and specific inhibitor of URAT1 for the treatment of hyperuricemia and gout” (Scientific Reports, 2017)
Numbering of substitutions follows the chain as printed. Like-named read-outs stand apart in the source and are kept apart here.

What was measured:
Format in all cases: cell-based
human URAT1 h-V18L = target: T1, human URAT1 h-V18L (Homo sapiens, UniProt Q96S37, V18L); assay: URAT1 activity assay, h-V18L; settings: TM1 point mutant, read-out: Verinurad affinity (IC50)
T1 construct: expressed in transfected cells; host or cells: HEK-293T
From the text: (§1) Human URAT1 (GenBank BC053348.1, Homo sapiens SLC22A12), rat URAT1 (NCBI NM_001034943.1, Rattus norvegicus Slc22a12) and human OAT4 (NCBI NM_018484.2, Homo sapiens SLC22A11) genes were purchased from Origene Technologies, Inc. and subcloned into pCMV6/neo using NotI. Where indicated, controls transfections used pCMV6/neo. Mutants were produced by site-directed mutagenesis using the QuikChange Lightning Multi Site-Directed Mutagenesis Kit (Agilent Technologies). […] Mutagenic primer sequences are provided in ref. [15] and mutagenic primer sequences for previously unreported mutants shown in Supplementary Table 1. All constructs used in this study were untagged. Human OAT1 was purchased from Fisher Scientific (catalog # MHS1010–7508183 in pSPORT6, NCBI NM_153276.2, Homo sapiens SLC22A6).
(§2) HEK-293T cells were maintained in DMEM/high glucose/L-glutamine/HEPES supplemented with 1 mM sodium pyruvate (Life Technologies) and 10% FBS (PAA Laboratories) at 37 °C in 5% CO2. […]
(§3) URAT1 and OAT4 activity assays were performed in assay buffer consisting of 25 mM MES pH 5.5 (from a 1 M MES solution [Sigma] adjusted to pH 5.5 with sodium hydroxide), 125 mM sodium gluconate, 4.8 mM potassium gluconate, 1.2 mM monobasic potassium phosphate, 1.2 mM magnesium sulfate, 1.3 mM calcium gluconate and 5.6 mM glucose. […] Each treatment was measured in triplicate.

human URAT1 h-T21A = target: T2, human URAT1 h-T21A (Homo sapiens, UniProt Q96S37, T21A); assay: URAT1 activity assay, h-T21A; settings: TM1 point mutant, read-out: Verinurad affinity (IC50)
T2 construct: expressed in transfected cells; host or cells: HEK-293T
From the text: as §1, §2, §3

rat URAT1 r-T32C = target: T3, rat URAT1 r-T32C (Rattus norvegicus, UniProt Q3ZAV1, T32C); assay: URAT1 activity assay, r-T32C
T3 construct: expressed in transfected cells; host or cells: HEK-293T
From the text: as §1, §2, §3

rat URAT1 r-V25M = target: T4, rat URAT1 r-V25M (Rattus norvegicus, UniProt Q3ZAV1, V25M); assay: URAT1 activity assay, r-V25M
T4 construct: expressed in transfected cells; host or cells: HEK-293T
From the text: as §1, §2, §3

human URAT1 h-F241Y = target: T5, human URAT1 h-F241Y (Homo sapiens, UniProt Q96S37, F241Y); assay: URAT1 activity assay, h-F241Y
T5 construct: expressed in transfected cells; host or cells: HEK-293T
T5 sequence (Q96S37 1-553 F241Y): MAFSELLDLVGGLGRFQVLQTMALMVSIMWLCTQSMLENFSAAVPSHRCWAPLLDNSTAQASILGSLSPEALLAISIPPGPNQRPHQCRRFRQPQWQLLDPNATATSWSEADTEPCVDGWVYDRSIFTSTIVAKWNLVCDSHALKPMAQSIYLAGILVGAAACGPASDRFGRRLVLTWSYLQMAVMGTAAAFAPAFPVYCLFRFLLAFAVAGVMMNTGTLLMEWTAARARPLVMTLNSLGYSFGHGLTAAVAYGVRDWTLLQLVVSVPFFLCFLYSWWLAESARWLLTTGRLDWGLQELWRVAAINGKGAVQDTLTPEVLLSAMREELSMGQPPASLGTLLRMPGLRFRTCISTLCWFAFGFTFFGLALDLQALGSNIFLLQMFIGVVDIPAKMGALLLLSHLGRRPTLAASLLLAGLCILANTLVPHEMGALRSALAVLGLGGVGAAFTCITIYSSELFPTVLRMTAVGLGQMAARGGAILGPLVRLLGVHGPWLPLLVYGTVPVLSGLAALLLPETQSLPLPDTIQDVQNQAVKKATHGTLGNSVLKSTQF
From the text: as §1
(§4) HEK-293T cells were maintained in DMEM/high glucose/L-glutamine/HEPES supplemented with 1 mM sodium pyruvate (Life Technologies) and 10% FBS (PAA Laboratories) at 37 °C in 5% CO2. To express URAT1, OAT4 or OAT1, plasmids were reverse transfected into HEK-293T cells. DNA (10 µg) was mixed with 30 µl of DreamFect Gold (Boca Scientific) in 2 ml OptiMem (Life Technologies). After 20 minutes, 18 ml of media containing 2 × 10^7 cells in suspension was added and mixed, and 200 µl per well were plated onto white clear-bottomed poly-D-lysine coated 96-well plates (BD Biosciences). The cells were assayed the following day.
(§5) URAT1 and OAT4 activity assays were performed in assay buffer consisting of 25 mM MES pH 5.5 (from a 1 M MES solution [Sigma] adjusted to pH 5.5 with sodium hydroxide), 125 mM sodium gluconate, 4.8 mM potassium gluconate, 1.2 mM monobasic potassium phosphate, 1.2 mM magnesium sulfate, 1.3 mM calcium gluconate and 5.6 mM glucose. URAT1 inhibitors were serially diluted into assay buffer and added to the cells for 5 minutes prior to addition of substrate. URAT1-expressing cells were incubated with 100 µM ^14C-uric acid for 10 minutes and OAT4-expressing cells were incubated with 20 µM carboxyfluorescein (Life Technologies, Inc.) for 5 minutes. Cells were then washed three times in 25 mM MES pH 5.5/125 mM sodium gluconate, and solubilized in Ultima Gold (Perkin Elmer) prior to liquid scintillation counting. Each treatment was measured in triplicate.

human URAT1 h-I481M = target: T6, human URAT1 h-I481M (Homo sapiens, UniProt Q96S37, I481M); assay: URAT1 activity assay, h-I481M
T6 construct: expressed in transfected cells; host or cells: HEK-293T
From the text: as §1, §2, §3

human URAT1 h-M25V = target: T7, human URAT1 h-M25V (Homo sapiens, UniProt Q96S37, M25V); assay: URAT1 activity assay, h-M25V; settings: TM1 point mutant, read-out: Verinurad affinity (IC50)
T7 construct: expressed in transfected cells; host or cells: HEK-293T
From the text: as §1, §2, §3

human URAT1 = target: T8, human URAT1 (Homo sapiens, UniProt Q96S37); assay: URAT1 activity assay (14C-uric acid transport), human URAT1; design: host or cells: HEK-293T
T8 sequence (Q96S37 1-553): T5 sequence (Q96S37 1-553 F241Y) with Y241F
Description: as §4, §5

human URAT1-F365Y = target: T9, human URAT1-F365Y (Homo sapiens, UniProt Q96S37, F365Y); assay: URAT1 activity assay, h-F365Y
T9 construct: expressed in transfected cells; host or cells: HEK-293T
From the text: as §1, §2, §3

human OAT4 = target: T10, human OAT4 (Homo sapiens, UniProt Q9NSA0); assay: OAT4 activity assay (carboxyfluorescein transport)
T10 construct: host or cells: HEK-293T
Description: as §4
as §5, with “Cells were then washed three times in 25 mM MES pH 5.5/125 mM sodium gluconate, and solubilized in Ultima Gold (Perkin Elmer) prior to liquid scintillation counting.” left out

T6 sequence (Q96S37 whole entry I481M): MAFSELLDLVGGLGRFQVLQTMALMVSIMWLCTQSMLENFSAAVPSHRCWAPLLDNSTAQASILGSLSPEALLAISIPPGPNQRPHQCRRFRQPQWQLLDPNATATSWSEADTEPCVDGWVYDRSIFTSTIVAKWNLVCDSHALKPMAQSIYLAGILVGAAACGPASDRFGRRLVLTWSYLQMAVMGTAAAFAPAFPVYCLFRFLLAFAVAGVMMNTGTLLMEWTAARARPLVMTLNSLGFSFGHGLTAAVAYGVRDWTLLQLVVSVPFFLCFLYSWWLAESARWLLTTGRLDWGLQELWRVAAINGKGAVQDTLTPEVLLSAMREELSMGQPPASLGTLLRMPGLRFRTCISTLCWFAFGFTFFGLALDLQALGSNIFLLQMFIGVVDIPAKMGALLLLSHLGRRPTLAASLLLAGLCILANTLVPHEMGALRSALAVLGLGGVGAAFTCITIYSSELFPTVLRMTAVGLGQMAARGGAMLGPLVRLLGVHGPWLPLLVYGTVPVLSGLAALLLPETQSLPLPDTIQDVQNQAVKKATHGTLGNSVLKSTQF
T4 sequence (Q3ZAV1 whole entry V25M): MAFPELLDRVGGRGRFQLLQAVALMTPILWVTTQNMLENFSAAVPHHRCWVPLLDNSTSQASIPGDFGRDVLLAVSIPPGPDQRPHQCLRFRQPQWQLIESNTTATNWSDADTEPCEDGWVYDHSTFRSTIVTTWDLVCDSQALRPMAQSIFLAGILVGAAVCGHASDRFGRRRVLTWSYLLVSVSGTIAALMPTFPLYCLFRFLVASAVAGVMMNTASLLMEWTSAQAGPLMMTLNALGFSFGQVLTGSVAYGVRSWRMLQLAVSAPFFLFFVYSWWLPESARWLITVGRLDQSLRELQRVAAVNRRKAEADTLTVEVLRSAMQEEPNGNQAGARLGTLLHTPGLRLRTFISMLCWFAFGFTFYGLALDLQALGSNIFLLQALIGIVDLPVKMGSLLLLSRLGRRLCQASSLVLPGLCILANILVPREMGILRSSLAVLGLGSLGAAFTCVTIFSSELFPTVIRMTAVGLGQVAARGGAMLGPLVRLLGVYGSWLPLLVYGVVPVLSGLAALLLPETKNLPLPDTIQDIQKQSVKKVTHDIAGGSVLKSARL
T10 sequence (Q9NSA0 whole entry): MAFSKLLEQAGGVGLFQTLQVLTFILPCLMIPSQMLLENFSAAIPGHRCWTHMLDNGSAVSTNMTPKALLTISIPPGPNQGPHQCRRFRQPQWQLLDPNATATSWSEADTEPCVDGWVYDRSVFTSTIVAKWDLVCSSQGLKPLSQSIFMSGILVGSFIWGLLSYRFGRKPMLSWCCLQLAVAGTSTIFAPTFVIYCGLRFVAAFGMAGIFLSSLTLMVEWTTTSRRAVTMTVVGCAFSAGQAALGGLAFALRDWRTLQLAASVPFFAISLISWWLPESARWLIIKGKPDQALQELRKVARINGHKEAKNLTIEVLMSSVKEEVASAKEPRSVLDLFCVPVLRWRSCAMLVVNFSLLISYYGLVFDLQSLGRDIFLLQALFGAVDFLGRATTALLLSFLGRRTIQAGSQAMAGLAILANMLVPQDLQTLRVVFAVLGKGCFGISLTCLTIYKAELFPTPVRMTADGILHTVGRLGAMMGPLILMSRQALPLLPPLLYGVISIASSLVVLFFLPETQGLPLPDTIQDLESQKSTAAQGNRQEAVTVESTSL
T9 sequence (Q96S37 whole entry F365Y): as the sequence (Q96S37 whole entry I481M) above, with F365Y, M481I counted along it
T3 sequence (Q3ZAV1 whole entry T32C): as the sequence (Q3ZAV1 whole entry V25M) above, with M25V, T32C counted along it
T7 sequence (Q96S37 whole entry M25V): as the sequence (Q96S37 whole entry I481M) above, with M25V, M481I counted along it
T1 sequence (Q96S37 whole entry V18L): as the sequence (Q96S37 whole entry I481M) above, with V18L, M481I counted along it
T2 sequence (Q96S37 whole entry T21A): as the sequence (Q96S37 whole entry I481M) above, with T21A, M481I counted along it

IC50 (human URAT1 h-V18L): 26 ± 15 nM | IC50 (human URAT1 h-T21A): 26 ± 12 nM | fold increase in affinity relative to rat URAT1 (rat URAT1 r-T32C): 1.4 fold | IC50 (rat URAT1 r-T32C; TM1 point mutant, read-out: Verinurad affinity (IC50)): 29000 ± 3100 nM | fold increase in affinity (rat URAT1 r-V25M; r-V25M vs rat URAT1): 2.3 fold | IC50 (rat URAT1 r-V25M; r-V25M, TM1 point mutant, read-out: Verinurad affinity (IC50)): 18000 ± 3200 nM | fold reduced affinity compared to human URAT1 (human URAT1 h-F241Y; h-F241Y): 5 fold | IC50 (human URAT1 h-F241Y; h-F241Y binding site point mutant): 120 nM | fold reduction in affinity compared to human URAT1 (human URAT1 h-I481M): 2 fold | IC50 (human URAT1 h-I481M; TM11 point mutant, read-out: Verinurad affinity (IC50)): 53 ± 10 nM | IC50 (human URAT1 h-M25V): 29 ± 10 nM | fold potency for URAT1 compared to other transporters (human URAT1; URAT1 vs other transporters): greater than 100 fold | IC50 (human URAT1; human URAT1 wild type in HEK-293T, 100 µM 14C-uric acid, pH 5.5, read-out: IC50, inhibition of transport activity): 25 ± 3.6 nM | IC50 (human URAT1; human URAT1 wild type, read-out: IC50, inhibition of transport activity of human URAT1): 25 nM | fold lower affinity relative to human URAT1 (human URAT1-F365Y): 160 fold | IC50 (human URAT1-F365Y; TM7 point mutant, read-out: Verinurad affinity (IC50)): 4000 ± 1700 nM | IC50 (human OAT4; human OAT4 in HEK-293T, 20 µM carboxyfluorescein, read-out: IC50, inhibition of transport activity): 5900 ± 1400 nM | fold lower affinity compared to URAT1 (human OAT4; human OAT4 vs human URAT1): approximately 200 fold
SMILES: CC(C)(Sc1ccncc1-c1ccc(C#N)c2ccccc12)C(=O)O [Verinurad, 2-((3-(4-cyanonaphthalen-1-yl)pyrindin-4-yl)thio)-2-methylpropanoic acid]
